Results on twelve compounds are retold here after patent US20160213657A1, “PHARMACEUTICAL COMPOSITION FOR TREATMENT AND/OR PREVENTION OF PULMONARY DISEASE” (UBE INDUSTRIES, LTD., priority 2013, published 2016).

Like-named read-outs stand apart in the source and are kept apart here. Some results are limits rather than exact numbers.

In assay [1] the test system is LPS-induced TNFα production of human peripheral blood mononuclear cells. The experiment in a line: Test of inhibition of LPS-induced TNFα production using human peripheral blood mononuclear cells. Format: cell-based. As to conditions: read-out: IC50 value (nM) of TNFα production inhibitory action of human PBMC. The procedure: Test of Inhibition of LPS-Induced TNFα Production Using Human Peripheral Blood Mononuclear Cells
Peripheral blood collected in the presence of heparin from healthy subjects was diluted two-fold with PBS containing 2 (V/V) % FBS. Hemocyte separation solution (Ficoll Paque™, manufactured by GE Healthcare Science) was added to SepMate™-50 (manufactured by […] Technologies Inc.) followed by layering the diluted blood thereon. A peripheral blood mononuclear cell (hereinafter abbreviated as PBMC) layer was recovered by centrifuging for 10 minutes under conditions of 20° C. and 1200×g. The resulting PBMCs were further centrifuged and washed twice followed by suspending in RPMI1640 medium containing 1 (V/V) % FBS for use in the following test.
A test of inhibition of LPS-induced TNFα production was performed by partially modifying the method of Mary et al. (Journal of Pharmacology and Experimental Therapeutics, 284, 420 (1998)). 185 μL of PBMC suspension prepared to a final concentration of 5×10^5 cells/mL was added to a 96-well plate, subsequently 10 μL of RPMI1640 medium, containing 1 (V/V) % DMSO in which a test compound was dissolved, was added to each well (DMSO final concentration: 0.05 (V/V) %). RPMI1640 medium containing 1 (V/V) % DMSO was similarly added to a well to which test compounds had not been added. After incubating for 1 hour in a carbon dioxide gas incubator, 5 μL of RPMI1640 medium containing LPS (L2880-500MG, manufactured by Sigma) was added to each well (LPS final concentration: 100 ng/mL). 5 μL of RPMI1640 medium was added to a non-LPS stimulation well. After culturing for about 18 hours in a carbon dioxide gas incubator, the culture supernatant was recovered. The recovered culture supernatant was stored at −20° C. until measurement of TNFα content.
A sandwich ELISA kit (Quantikine DTA00c, manufactured by R&D Systems) was used to measure TNFα content. The TNFα content of each sample was calculated from a standard curve of E. coli-derived human recombinant TNF provided with the kit. TNFα production inhibition rate at each test compound concentration was calculated based on a value of 100% for the amount of TNFα produced by LPS in the case of only adding DMSO. The concentration of test compound that inhibited TNFα production by 50% was calculated as the IC50 value (nM) from the relationship between concentration of the added test compound and TNFα production inhibition rate of the test compound.

Assay [2] relates to neutrophil infiltration of the rat lung. The experiment in a line: Inhibitory effect on neutrophil infiltration of rat lung (LPS intratracheal, BALF). In kind it is in vivo. As to conditions: SD rats; approx. 0.1 mg/Kg intratracheally 1 hour prior to LPS; BALF 4 hours after LPS. The procedure:
Inhibitory Effect on Neutrophil Infiltration of Rat Lung
A test of inhibition of neutrophil infiltration of the rat lung was performed by partially modifying the method of Spond et al. (Pulmonary Pharmacology and Therapeutics, 14, 157 (2001)). 25 μL (approx. 4 μg/Kg) of physiological saline solution containing LPS (L2880-500MG, manufactured by Sigma) (concentration: 0.04 mg/mL) was administered intratracheally under isoflurane inhalation anesthesia into SD rats fasted for about 16 hours (males, 7-8 weeks old, body weights: 240 g to 270 g (average: approx. 250 g), supplied by Charles River Laboratories, Japan). A Microsprayer™ (IA-1C-M, manufactured by PennCentury) was used for intratracheal administration.
Dosing solutions of the test compounds were prepared by dissolving the test compounds in a 0.1 mol/L or 1 mol/L aqueous sodium hydroxide solution followed by adding medium and neutralizing (final test compound concentration: 1 mg/mL). PBS or phosphate buffer solution (20 mM, pH=7.4) was used for the medium. 25 μL (approx. 0.1 mg/Kg) of the test compound solution prepared in this manner was administered intratracheally in the same manner as LPS administration 1 hour prior to administration of LPS. Medium was administered to a control group. Furthermore, 6 animals were used in the test compound dosing groups and control group, respectively. […]
The number of white blood cells present in the BALF suspension was measured using a multiparameter automated hematology analyzer (KX-21, manufactured by Sysmex). […] Next, after staining the cells using the Diff-Quik staining kit (Cat. No. 16920, manufactured by Sysmex), the number of neutrophils present among 300 white blood cells was measured under a light microscope (BH-2, manufactured by Olympus) followed by calculating the ratio of neutrophils to white blood cells (NR=the number of neutrophils among 300 white blood cells/300). […]
The number of neutrophils present in the BALF cell suspension was measured using a multiparameter automated hematology analyzer (XT-2000iV, manufactured by Sysmex). […]

A further assay deals with human EP2 receptor (Homo sapiens, UniProt P43116). The experiment in a line: Measurement of EP2 receptor binding action ([3H]prostaglandin E2 displacement). The procedure: Measurement of EP2 Receptor Binding Action
The membrane fraction was collected on glass fiber filter paper (GF/B, manufactured by Whatman) using a cell harvester (M30R, manufactured by Brandel), and after washing with a buffer solution (10 mM MES-KOH (pH 6.0), 10 mM MgCl2), radioactivity was measured with a liquid scintillation analyzer (2000CA, manufactured by Packard).
Ki=IC50/(1+([^3H]prostaglandin E2 concentration/Kd))
Furthermore, the dissociation constant (Kd value) was calculated by Scatchard analysis.

Where [3] appears, read: membrane fraction of HEK293 cells expressing human EP2 receptor, [3H]prostaglandin E2 10 nM, 30° C., 60 minutes, read-out: Ki value (nM) of EP2 receptor binding action.

Chain of human EP2 receptor (P43116 whole entry): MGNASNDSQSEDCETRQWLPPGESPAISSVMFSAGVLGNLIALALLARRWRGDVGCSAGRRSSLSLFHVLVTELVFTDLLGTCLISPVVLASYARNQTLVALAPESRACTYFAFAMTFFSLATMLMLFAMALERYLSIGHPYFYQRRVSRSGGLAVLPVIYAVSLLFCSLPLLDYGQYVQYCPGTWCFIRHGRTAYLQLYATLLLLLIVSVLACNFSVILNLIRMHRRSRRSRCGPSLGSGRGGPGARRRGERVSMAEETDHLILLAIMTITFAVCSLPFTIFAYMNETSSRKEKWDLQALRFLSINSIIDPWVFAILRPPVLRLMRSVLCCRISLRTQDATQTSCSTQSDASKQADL

In the case of `CCOc1cccc(-c2ccc(CN(Cc3cccc(NCC(=O)O)n3)S(=O)(=O)c3cccs3)cc2)c1` [Example 11, {6-[(3′-Ethoxybiphenyl-4-ylmethyl)(thiophen-2-ylsulfonyl)aminomethyl]-pyridin-2-ylamino}acetic acid], the IC50 in assay [1] (Homo sapiens, PBMC, 18 h) worked out at 23 nM. As to `CC#Cc1cccc(-c2ccc(CN(Cc3cccc(NCC(=O)O)n3)S(=O)(=O)c3cccs3)cc2)c1` [Example 14, (6-{[3′-(1-Propynyl)biphenyl-4-ylmethyl](thiophen-2-ylsulfonyl)-aminomethyl}pyridin-2-ylamino)acetic acid], the “Inhibition rate of pulmonary neutrophil infiltration” value (from here on “Inhibition rate”) in assay [2] is 65%. The Ki at human EP2 receptor (setting [3]) was found to be 0.9 nM. Further, the IC50 in assay [1] (Homo sapiens, PBMC, 18 h) worked out at 13 nM. Compound `CC#Cc1cccc(-c2ccc(CN(Cc3cccc(NCC(=O)O)n3)S(=O)(=O)c3cccnc3)cc2)c1` [Example 6, (6-{[3′-(1-Propynyl)biphenyl-4-ylmethyl](pyridin-3-ylsulfonyl)aminomethyl}-pyridin-2-ylamino)acetic acid] registered a Ki at human EP2 receptor of 0.75 nM. For the same compound, in assay [1] (Homo sapiens, PBMC, 18 h), the IC50 worked out at 9.4 nM. With `CCOc1cccc(-c2ccc(CN(Cc3cccc(NCC(=O)O)n3)S(=O)(=O)c3cccnc3)cc2)c1` [Example 9, {6-[(3′-Ethoxybiphenyl-4-ylmethyl)(pyridin-3-ylsulfonyl)aminomethyl]-pyridin-2-ylamino}acetic acid], the affinity on human EP2 receptor, expressed as Ki, was 0.8 nM. For `CC#Cc1cccc(-c2ccc(CN(Cc3cccc(NCC(=O)O)n3)S(=O)(=O)c3ccsc3)cc2)c1` [Example 18, (6-{[3′-(1-Propynyl)biphenyl-4-ylmethyl](thiophen-3-ylsulfonyl)-aminomethyl}pyridin-2-ylamino)acetic acid], the Ki at human EP2 receptor (setting [3]) was determined as 0.99 nM. The IC50 in assay [1] (Homo sapiens, PBMC, 18 h) was 3.2 nM. `CCOc1cccc(-c2ccc(CN(Cc3cccc(NCC(=O)O)n3)S(=O)(=O)c3ccccn3)cc2)c1` [Example 7, {6-[(3′-Ethoxybiphenyl-4-ylmethyl)(pyridin-2-ylsulfonyl)aminomethyl]-pyridin-2-ylamino}acetic acid] showed a Ki at human EP2 receptor of 0.61 nM. Also, in assay [1] (Homo sapiens, PBMC, 18 h), the concentration for half-maximal inhibition (IC50) is 20 nM. Take `CCOc1cccc(-c2ccc(CN(Cc3cccc(NCC(=O)O)n3)S(=O)(=O)c3ccccn3)cc2)n1` [Example 12, (6-{[4-(6-Ethoxypyridin-2-yl)benzyl](pyridin-2-ylsulfonyl)aminomethyl}-pyridin-2-ylamino)acetic acid]: the IC50 in assay [1] (Homo sapiens, PBMC, 18 h) came to 16 nM. `CCOc1cccc(-c2ccc(CN(Cc3cccc(NCC(=O)O)n3)S(=O)(=O)c3ccccc3)cc2)c1` [Example 10, {6-[(Benzenesulfonyl)(3′-ethoxybiphenyl-4-ylmethyl)aminomethyl]pyridin-2-ylamino}acetic acid] showed a Ki at human EP2 receptor of 0.97 nM. In assay [1] (Homo sapiens, PBMC, 18 h), the IC50 turned out to be 18 nM. In the case of `CC#Cc1cccc(-c2ccc(CN(Cc3cccc(NCC(=O)O)n3)S(=O)(=O)c3ccccn3)cc2)c1` [Example 4, (6-{[3′-(1-Propynyl)biphenyl-4-ylmethyl](pyridin-2-ylsulfonyl)aminomethyl}-pyridin-2-ylamino)acetic acid], in assay [2], the “Inhibition rate” value is given as 71%. Moreover, the Ki on human EP2 receptor (setting [3]) stood at 0.8 nM. For the same compound, the IC50 in assay [1] (Homo sapiens, PBMC, 18 h) amounted to 3.3 nM. Turning to `CCCc1cccc(-c2ccc(CN(Cc3cccc(NCC(=O)O)n3)S(=O)(=O)c3ccccn3)cc2)c1` [Comparative Example 1, {6-[(3′-Propylbiphenyl-4-ylmethyl)(pyridin-2-ylsulfonyl)aminomethyl]pyridin-2-ylamino}acetate, reference compound], the Ki at human EP2 receptor (setting [3]) worked out at 1.1 nM. The IC50 in assay [1] (LPS 100 ng/mL, culture about 18 hours, TNFα by ELISA) was more than 300 nM. Take `CC#Cc1cccc(-c2ccc(CN(Cc3cccc(NCC(=O)O)n3)S(=O)(=O)c3ccccc3)cc2)c1` [Example 16, (6-{(Benzenesulfonyl)[3′-(1-propynyl)biphenyl-4-ylmethyl]aminomethyl}-pyridin-2-ylamino)acetic acid]: the “Inhibition rate” value in assay [2] came out at 66%. This compound also returned an inhibitory constant (Ki) at human EP2 receptor of 0.95 nM. Moreover, the half-maximal inhibitory concentration (IC50) in assay [1] (Homo sapiens, PBMC, 18 h) came to 15 nM. In the case of `CC=Cc1cccc(-c2ccc(CN(Cc3cccc(NCC(=O)O)n3)S(=O)(=O)c3ccccn3)cc2)c1` [Example 2], at human EP2 receptor (setting [3]), the Ki came to 0.53 nM.

One may read the IC50 as the concentration needed to halve the response being measured. One may read the Ki as a measure of affinity in units of concentration, obtained from inhibition or displacement.
